From publication PMC12431658, “Versatile roles of rubredoxin reductase of Pseudomonas aeruginosa TBCF10839 in virulence and stress protection” (PLOS Pathogens, 2025)

Target: T1, rubredoxin reductase RubB (also RubR, RdxR) (Pseudomonas aeruginosa, UniProt Q9HTK9)
T1 construct: gene alkT; gene 1,155 bp
Experiment: stopped-flow FAD fluorescence (excitation […] nm)
Assay type: biochemical
Settings: pH 8.0, 0.1 M NaCl, 25 °C; reduction of bound FAD; no RubA2

T1 sequence (Q9HTK9 whole entry): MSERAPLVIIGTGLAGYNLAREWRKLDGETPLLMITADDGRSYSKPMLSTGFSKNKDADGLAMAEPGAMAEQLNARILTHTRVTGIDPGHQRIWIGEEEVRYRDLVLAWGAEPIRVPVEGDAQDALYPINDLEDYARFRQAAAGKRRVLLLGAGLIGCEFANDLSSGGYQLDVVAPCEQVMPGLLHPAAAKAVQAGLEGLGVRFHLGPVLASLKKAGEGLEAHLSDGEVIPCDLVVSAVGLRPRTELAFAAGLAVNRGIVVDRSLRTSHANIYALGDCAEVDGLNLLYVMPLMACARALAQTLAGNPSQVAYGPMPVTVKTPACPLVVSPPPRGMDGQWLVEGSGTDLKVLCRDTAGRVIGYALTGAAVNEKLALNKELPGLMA

Question: With `NC(=O)C1=CN([C@@H]2O[C@H](COP(=O)(O)OP(=O)(O)OC[C@H]3O[C@@H](n4cnc5c(N)ncnc54)[C@H](O)[C@@H]3O)[C@@H](O)[C@H]2O)C=CC1` [NADH] as the compound, how does the “stopped-flow FAD fluorescence (excitation 436 nm)” value read?
Answer: The value was “after the addition of NADH the FAD fluorophore was reduced within milliseconds to FADH2”.
